# Values joined by “and” are separate entries in the source; they are usually repeats but may differ in a detail not shown here. Identical values can stand only once.
# Assays:
# Test in all cases: CellTiter-Glo dose-response cell viability assay
# Format in all cases: cell-based, human
# [1] = test system: GB82 patient-derived GSC line
# Protocol: (§1) QST (JNJ-26481585) is a second-generation hydroxamic acid harboring remarkable selectivity toward class I HDACs, with a biochemical IC50 of 0.1 nM for HDAC1 ([13]). […] To determine the cytotoxic effects of QST, we performed a dose-titration cell viability assay in 7 patient-derived GSC lines (BT145, GB187, GB239, GB282, GB71, GB82, and GB126) and 1 long-term serum-grown human GBM cell line (U87). Because GBMs display a high degree of intratumoral heterogeneity, we used GSCs derived from both primary and recurrent GBMs that harbored distinct genetic mutations or aberrations, growth rates, MGMT promoter methylation status, and gene expression profiles (Supplemental Figure 1; supplemental material available online with this article; https://doi.org/10.1172/jci.insight.167081DS1). Cell lines were treated with various concentrations of QST (10–1000 nM), and cell viability was measured 3–5 days later (Figure 1, A and B). […] Treatment with QST at the IC50 induced significant inhibition of proliferation (Ki67) and an increase in programmed cell death (cleaved caspase 3) in 2 different GSC lines (Figure 1, C and D). Additional analyses confirmed that QST induces apoptosis after short-term treatment through increased staining of the apoptotic marker annexin V (Figure 2A) and cell cycle arrest (in G2- or S-phase; Figure 2B and Supplemental Figure 1B).
# (§2) GSCs were seeded in laminin-coated tissue culture–treated 96-well plates (clear bottom, white plate; Corning) at a density of 1000–5000 cells per well (cell line dependent) in GSC media. U87-MG were seeded using their normal growth conditions without laminin (10% bovine calf serum in DMEM). All cells were incubated at 37°C and allowed to adhere overnight. The next day, cells were treated with incremental concentrations of QST (Selleckchem; 0, 10, 25, 50, 100, 250, 500, and 1000 nM) diluted in media. Cells treated without QST were treated with DMSO diluted in media. Following treatment with QST, cells were grown for 3 to 5 days (cell line dependent), and cell viability was measured and quantified. All cell viability measurements were performed using the CellTiter-Glo luminescent cell viability assay (Promega) following the manufacturer’s instructions. For the sulforhodamine B colorimetric assay for cytotoxicity, the protocol was performed as described elsewhere ([33]). All cell viability results represent the mean of at least 3 biological replicates, each containing 3 technical replicates.
# U87 GBM cell line = test system: U87 GBM cell line
# Protocol: as §1, §2
# [2] = test system: GB282 patient-derived GSC line
# Protocol: as §1, §2
# [3] = test system: BT145 patient-derived GSC line; details: Homo sapiens
# Protocol: as §1, §2
compound,measurement,setting,value
"Cn1cc(CNCC2CCN(c3ncc(C(=O)NO)cn3)CC2)c2ccccc21 [QST, quisinostat]",IC50,"[1]; Homo sapiens, 3-5 days",65 nM
same,viability at 0.01 µM,"[1]; Homo sapiens, QST 10 nM (log[nM] 1), read-out: Cell viability (fraction of DMSO control)",78.8%
same,viability at 0.025 µM,"[1]; Homo sapiens, QST 25 nM (log[nM] 1.39794), read-out: Cell viability (fraction of DMSO control)",77.1%
same,viability at 0.05 µM,"[1]; Homo sapiens, QST 50 nM (log[nM] 1.69897), read-out: Cell viability (fraction of DMSO control)",66.9%
same,viability at 0.1 µM,"[1]; Homo sapiens, QST 100 nM (log[nM] 2), read-out: Cell viability (fraction of DMSO control)",51.1%
same,viability at 0.25 µM,"[1]; Homo sapiens, QST 250 nM (log[nM] 2.39794), read-out: Cell viability (fraction of DMSO control)",37.7%
same,viability at 0.5 µM,"[1]; Homo sapiens, QST 500 nM (log[nM] 2.69897), read-out: Cell viability (fraction of DMSO control)",30.8%
same,viability at 1 µM,"[1]; Homo sapiens, QST 1000 nM (log[nM] 3), read-out: Cell viability (fraction of DMSO control)",26.5%
same,Cell viability (fraction of DMSO control),[1]; QST 10 nM (log[nM] 1),0.7668 and 0.8052
same,Cell viability (fraction of DMSO control),[1]; QST 25 nM (log[nM] 1.39794),0.6655 and 0.6833
same,Cell viability (fraction of DMSO control),[1]; QST 50 nM (log[nM] 1.69897),0.651 and 0.6783
same,Cell viability (fraction of DMSO control),[1]; QST 100 nM (log[nM] 2),0.4804 and 0.526
same,Cell viability (fraction of DMSO control),[1]; QST 250 nM (log[nM] 2.39794),0.3237 and 0.3695
same,Cell viability (fraction of DMSO control),[1]; QST 500 nM (log[nM] 2.69897),0.2733 and 0.2932
same,Cell viability (fraction of DMSO control),[1]; QST 1000 nM (log[nM] 3),0.2807 and 0.2449
same,viability at 0.01 µM,"U87 GBM cell line; Homo sapiens, U87LN, QST 10 nM (log[nM] 1), read-out: Cell viability (fraction of DMSO control)",83.5%
same,viability at 0.025 µM,"U87 GBM cell line; Homo sapiens, U87LN, QST 25 nM (log[nM] 1.39794), read-out: Cell viability (fraction of DMSO control)",56.7%
same,viability at 0.05 µM,"U87 GBM cell line; Homo sapiens, U87LN, QST 50 nM (log[nM] 1.69897), read-out: Cell viability (fraction of DMSO control)",31.6%
same,viability at 0.1 µM,"U87 GBM cell line; Homo sapiens, U87LN, QST 100 nM (log[nM] 2), read-out: Cell viability (fraction of DMSO control)",21.5%
same,viability at 0.25 µM,"U87 GBM cell line; Homo sapiens, U87LN, QST 250 nM (log[nM] 2.39794), read-out: Cell viability (fraction of DMSO control)",12.8%
same,viability at 0.5 µM,"U87 GBM cell line; Homo sapiens, U87LN, QST 500 nM (log[nM] 2.69897), read-out: Cell viability (fraction of DMSO control)",9.84%
same,viability at 1 µM,"U87 GBM cell line; Homo sapiens, U87LN, QST 1000 nM (log[nM] 3), read-out: Cell viability (fraction of DMSO control)",8.54%
same,IC50,"U87 GBM cell line; Homo sapiens, U87, 3-5 days",28 nM
same,Cell viability (fraction of DMSO control),"U87 GBM cell line; U87LN, QST 10 nM (log[nM] 1)",0.852 and 0.8354
same,Cell viability (fraction of DMSO control),"U87 GBM cell line; U87LN, QST 25 nM (log[nM] 1.39794)",0.6316 and 0.5286
same,Cell viability (fraction of DMSO control),"U87 GBM cell line; U87LN, QST 50 nM (log[nM] 1.69897)",0.3812 and 0.3792
same,Cell viability (fraction of DMSO control),"U87 GBM cell line; U87LN, QST 100 nM (log[nM] 2)",0.2379 and 0.236
same,Cell viability (fraction of DMSO control),"U87 GBM cell line; U87LN, QST 250 nM (log[nM] 2.39794)",0.1476 and 0.1204
same,Cell viability (fraction of DMSO control),"U87 GBM cell line; U87LN, QST 500 nM (log[nM] 2.69897)",0.1063 and 0.09789
same,Cell viability (fraction of DMSO control),"U87 GBM cell line; U87LN, QST 1000 nM (log[nM] 3)",0.08873 and 0.08769
same,Cell viability (fraction of DMSO control),"[2]; GB282xTdT, QST 10 nM (log[nM] 1)",0.8875 and 0.8957
same,Cell viability (fraction of DMSO control),"[2]; GB282xTdT, QST 25 nM (log[nM] 1.39794)",0.7531 and 0.7488
same,Cell viability (fraction of DMSO control),"[2]; GB282xTdT, QST 50 nM (log[nM] 1.69897)",0.6063 and 0.5741
same,Cell viability (fraction of DMSO control),"[2]; GB282xTdT, QST 100 nM (log[nM] 2)",0.3901 and 0.3391
same,Cell viability (fraction of DMSO control),"[2]; GB282xTdT, QST 250 nM (log[nM] 2.39794)",0.1846 and 0.1521
same,Cell viability (fraction of DMSO control),"[2]; GB282xTdT, QST 500 nM (log[nM] 2.69897)",0.1138 and 0.08263
same,Cell viability (fraction of DMSO control),"[2]; GB282xTdT, QST 1000 nM (log[nM] 3)",0.07483 and 0.05455
same,viability at 0.01 µM,"[2]; Homo sapiens, GB282xTdT, QST 10 nM (log[nM] 1), read-out: Cell viability (fraction of DMSO control)",98.4%
same,viability at 0.025 µM,"[2]; Homo sapiens, GB282xTdT, QST 25 nM (log[nM] 1.39794), read-out: Cell viability (fraction of DMSO control)",84.2%
same,viability at 0.05 µM,"[2]; Homo sapiens, GB282xTdT, QST 50 nM (log[nM] 1.69897), read-out: Cell viability (fraction of DMSO control)",68%
same,viability at 0.1 µM,"[2]; Homo sapiens, GB282xTdT, QST 100 nM (log[nM] 2), read-out: Cell viability (fraction of DMSO control)",43.8%
same,viability at 0.25 µM,"[2]; Homo sapiens, GB282xTdT, QST 250 nM (log[nM] 2.39794), read-out: Cell viability (fraction of DMSO control)",22%
same,viability at 0.5 µM,"[2]; Homo sapiens, GB282xTdT, QST 500 nM (log[nM] 2.69897), read-out: Cell viability (fraction of DMSO control)",13.2%
same,viability at 1 µM,"[2]; Homo sapiens, GB282xTdT, QST 1000 nM (log[nM] 3), read-out: Cell viability (fraction of DMSO control)",8.37%
same,IC50,"[2]; Homo sapiens, GB282, 3-5 days",66 nM
same,IC50,[3]; 3-5 days,75 nM
same,viability at 0.01 µM,"[3]; QST 10 nM (log[nM] 1), no IR, read-out: Cell viability (fraction of DMSO control)",70%
same,viability at 0.025 µM,"[3]; QST 25 nM (log[nM] 1.39794), no IR, read-out: Cell viability (fraction of DMSO control)",64%
same,viability at 0.05 µM,"[3]; QST 50 nM (log[nM] 1.69897), no IR, read-out: Cell viability (fraction of DMSO control)",40%
